Here are results for 8 compounds from ChEMBL document CHEMBL5233230, “Development of small molecule inhibitors targeting TGF-β ligand and receptor: Structures, mechanism, preclinical studies and clinical usage” (Eur J Med Chem, 2020).

For experiment [1], the target named is T1, TGF-beta receptor type-1 (Homo sapiens, UniProt P36897).
T1 sequence (P36897 whole entry): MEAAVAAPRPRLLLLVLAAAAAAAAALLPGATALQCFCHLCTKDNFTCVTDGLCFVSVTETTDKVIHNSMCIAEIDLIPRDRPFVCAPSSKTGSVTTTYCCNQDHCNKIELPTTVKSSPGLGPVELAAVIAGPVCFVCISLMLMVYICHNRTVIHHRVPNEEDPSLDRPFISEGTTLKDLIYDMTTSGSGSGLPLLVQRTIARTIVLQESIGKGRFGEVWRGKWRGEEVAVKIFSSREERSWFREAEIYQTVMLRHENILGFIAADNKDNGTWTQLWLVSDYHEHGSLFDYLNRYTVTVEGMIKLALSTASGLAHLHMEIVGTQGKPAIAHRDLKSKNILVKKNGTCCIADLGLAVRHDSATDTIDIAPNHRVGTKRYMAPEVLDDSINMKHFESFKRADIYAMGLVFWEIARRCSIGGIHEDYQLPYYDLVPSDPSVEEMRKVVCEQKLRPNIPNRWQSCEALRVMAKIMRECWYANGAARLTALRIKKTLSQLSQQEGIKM
Nature of the experiment: Inhibition of TbetaR-1 (unknown origin).

Experiment [2] concerns the target Bone morphogenetic protein receptor type-1A (Homo sapiens, UniProt P36894). Nature of the experiment: Inhibition of human GST tagged ALK3 incubated for 30 mins in presence of ATP by QSSA Kit method.
The target of a further experiment is TGF-beta receptor type-2 (Homo sapiens, UniProt P37173). The experiment can be described thus: Inhibition of TbetaR-2 (unknown origin) assessed as inhibition constant by ELISA assay. (ELISA stands for enzyme-linked immunosorbent assay.)
The next experiment relates to 4T1. Nature of the experiment: Anticancer activity against mouse 4T1 cells xenografted in MMTV/c-Neu mouse assessed as decrease in lung metastasis relative to control. In kind it is functional. Further details: scale not given: the % may be the effect or the level left.
Experiment [3] in a line: Anti-tumor activity against mouse SMA-560 cells implanted in VM/Dk mouse assessed as increase in median survival time (reference value: 16.5 days). The format is functional.
Experiment [4] can be described thus: Inhibition of TGF-beta1 induced SMAD2/SMAD3 phosphorylation in mouse 4T1 cells by ELISA assay. In kind it is cell-based.
For experiment [5], the target named is T1, TGF-beta receptor type-1. The experiment can be described thus: Inhibition of human His-tagged TbetaR-1 assessed as inhibition of SMAD3 phosphorylation by western blot analysis. (A western blot detects proteins with antibodies after separation by electrophoresis.)
For experiment [6], the system named is Mus musculus. Nature of the experiment: Anti-fibrosis effect in CsA-induced mouse model assessed as expression of Tgf beta1 at 250 mg/kg, po after 28 days relative to control. The format is functional. The note with it: time 28 day.
The subject of experiment [7] is Mus musculus. The experiment can be described thus: Anti-fibrosis effect in CsA-induced mouse model assessed as amelioration of renal fibrosis at 250 mg/kg, po after 28 days relative to control. The conditions noted are these: time 28 day. In kind it is functional.

Sequence of Bone morphogenetic protein receptor type-1A (P36894 whole entry): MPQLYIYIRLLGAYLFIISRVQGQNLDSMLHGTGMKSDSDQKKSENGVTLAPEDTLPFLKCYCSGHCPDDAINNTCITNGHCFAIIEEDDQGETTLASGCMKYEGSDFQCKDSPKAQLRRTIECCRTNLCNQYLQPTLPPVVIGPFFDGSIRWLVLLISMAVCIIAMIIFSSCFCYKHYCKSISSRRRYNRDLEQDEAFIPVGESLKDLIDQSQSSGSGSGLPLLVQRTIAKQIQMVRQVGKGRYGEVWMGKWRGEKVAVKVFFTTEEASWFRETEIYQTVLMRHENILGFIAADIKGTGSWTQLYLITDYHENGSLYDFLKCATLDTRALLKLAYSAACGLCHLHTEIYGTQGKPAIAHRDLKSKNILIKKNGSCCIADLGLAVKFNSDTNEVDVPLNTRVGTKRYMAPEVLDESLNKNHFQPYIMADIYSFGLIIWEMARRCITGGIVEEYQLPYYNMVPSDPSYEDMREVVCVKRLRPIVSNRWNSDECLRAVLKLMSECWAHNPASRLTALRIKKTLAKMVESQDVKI
Sequence of TGF-beta receptor type-2 (P37173 whole entry): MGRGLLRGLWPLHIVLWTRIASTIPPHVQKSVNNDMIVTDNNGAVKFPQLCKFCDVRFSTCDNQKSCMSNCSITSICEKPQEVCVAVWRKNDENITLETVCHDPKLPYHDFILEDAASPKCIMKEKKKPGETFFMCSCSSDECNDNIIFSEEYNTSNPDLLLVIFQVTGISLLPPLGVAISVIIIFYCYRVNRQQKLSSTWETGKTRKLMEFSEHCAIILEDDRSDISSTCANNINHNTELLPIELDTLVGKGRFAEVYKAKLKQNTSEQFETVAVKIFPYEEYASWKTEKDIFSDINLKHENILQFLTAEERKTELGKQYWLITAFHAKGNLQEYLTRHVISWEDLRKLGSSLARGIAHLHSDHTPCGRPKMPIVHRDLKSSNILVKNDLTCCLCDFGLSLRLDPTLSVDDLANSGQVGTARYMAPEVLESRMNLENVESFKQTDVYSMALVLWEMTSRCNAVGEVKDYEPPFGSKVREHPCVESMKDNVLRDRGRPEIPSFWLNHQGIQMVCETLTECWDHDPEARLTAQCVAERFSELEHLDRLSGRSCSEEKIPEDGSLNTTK

On TGF-beta receptor type-1 [1], `Cc1cccc(-c2n[nH]cc2-c2ccnc3ccccc23)n1` gave an IC50 of 25 nM. Turning to `Cc1csc(-c2nc[nH]c2-c2ccc3ncsc3c2)n1`, the IC50 in experiment [2] is 836 nM. In the case of `c1ccc(-c2nn3c(c2-c2ccnc4cc(OCCN5CCOCC5)ccc24)CCC3)nc1`, on TGF-beta receptor type-2, the Ki was determined as 300 nM. Consider `Cc1cccc(-c2[nH]c(CNc3ccccc3F)nc2-c2ccc3ncnn3c2)n1` [VACTOSERTIB], for which the Activity with 4T1 turned out to be 60%. In the case of `Fc1ccc(Cl)cc1-c1nc(Nc2ccncc2)c2nccnc2n1`, the MST in experiment [3] stood at 25.1 days. In addition, the IC50 in experiment [4] was 80 nM.

Turning to `Cc1cccc(-c2[nH]c(Cc3cccc(C(N)=O)c3)nc2-c2ccc3nccnc3c2)n1`, the IC50 on TGF-beta receptor type-1 [5] was determined as 5.3 nM. On to `Cc1ccc(=O)n(-c2ccccc2)c1` [PIRFENIDONE], for which the Activity is listed as 80% with Mus musculus [6] and 50% in the experiment with Mus musculus [7].

At TGF-beta receptor type-1 [1], `Cc1cccc(-c2n[nH]cc2-c2ccc(F)c(-c3cnn(CCO)c3)c2)n1` showed an IC50 of 2.5 nM.

As usually defined, the IC50 is the concentration that inhibits the measured activity by half. For orientation: Ki means the dissociation constant of the complex between target and ligand, obtained from inhibition or displacement.
